Holding throughout (test): Eurofins kinase selectivity profile against 380 other human recombinant kinases (Table S2)
Common to all, as to type: biochemical

In test [1] the target is T1, 380 human recombinant protein kinases (Homo sapiens, UniProt P29322).
T1 construct: purchased Eurofins (Celle Lévescault)
T1 sequence (P29322 28-1005): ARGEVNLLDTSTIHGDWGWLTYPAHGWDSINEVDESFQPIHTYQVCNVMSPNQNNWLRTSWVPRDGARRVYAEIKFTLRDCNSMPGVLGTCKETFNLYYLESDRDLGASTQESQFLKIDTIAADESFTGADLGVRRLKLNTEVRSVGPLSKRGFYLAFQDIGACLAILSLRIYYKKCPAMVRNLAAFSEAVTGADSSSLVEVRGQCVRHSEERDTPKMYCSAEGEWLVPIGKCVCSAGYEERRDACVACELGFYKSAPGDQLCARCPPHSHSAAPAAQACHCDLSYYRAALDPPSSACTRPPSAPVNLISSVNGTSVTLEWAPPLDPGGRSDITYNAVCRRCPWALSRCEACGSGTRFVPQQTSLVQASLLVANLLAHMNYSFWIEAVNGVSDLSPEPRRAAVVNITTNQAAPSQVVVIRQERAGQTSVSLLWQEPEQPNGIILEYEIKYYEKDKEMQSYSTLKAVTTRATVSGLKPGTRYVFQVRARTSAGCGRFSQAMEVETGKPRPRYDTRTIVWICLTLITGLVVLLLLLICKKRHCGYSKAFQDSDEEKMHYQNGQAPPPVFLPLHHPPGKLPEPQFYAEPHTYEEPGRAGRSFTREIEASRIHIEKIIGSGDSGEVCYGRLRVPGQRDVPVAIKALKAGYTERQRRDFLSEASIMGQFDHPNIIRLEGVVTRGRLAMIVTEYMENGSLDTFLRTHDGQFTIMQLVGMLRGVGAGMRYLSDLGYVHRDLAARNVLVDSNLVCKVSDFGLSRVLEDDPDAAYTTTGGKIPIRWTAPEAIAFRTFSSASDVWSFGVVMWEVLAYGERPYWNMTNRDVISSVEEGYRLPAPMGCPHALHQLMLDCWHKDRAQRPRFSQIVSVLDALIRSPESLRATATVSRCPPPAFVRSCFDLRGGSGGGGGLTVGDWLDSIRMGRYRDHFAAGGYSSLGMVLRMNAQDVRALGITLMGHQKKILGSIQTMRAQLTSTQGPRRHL
Particulars: EphA8(h), read-out: Inhibition rate. The gist of the method: (§1)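 Outsourced panel: 380 human recombinant kinases; inhibitor tested at various concentrations; purpose: MK2 selectivity check.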

Test [2] has as its target T2, 380 human recombinant protein kinases (Homo sapiens, UniProt P42336, E545K).
T2 construct: purchased Eurofins (Celle Lévescault)
Particulars: PI3 Kinase (p110α(E545K)/p85α)(h), read-out: Inhibition rate (%). In a few lines: as §1

Test [3] concerns the target T3, 380 human recombinant protein kinases (Homo sapiens, UniProt Q8IVH8).
T3 construct: purchased Eurofins (Celle Lévescault)
T3 sequence (Q8IVH8 1-894): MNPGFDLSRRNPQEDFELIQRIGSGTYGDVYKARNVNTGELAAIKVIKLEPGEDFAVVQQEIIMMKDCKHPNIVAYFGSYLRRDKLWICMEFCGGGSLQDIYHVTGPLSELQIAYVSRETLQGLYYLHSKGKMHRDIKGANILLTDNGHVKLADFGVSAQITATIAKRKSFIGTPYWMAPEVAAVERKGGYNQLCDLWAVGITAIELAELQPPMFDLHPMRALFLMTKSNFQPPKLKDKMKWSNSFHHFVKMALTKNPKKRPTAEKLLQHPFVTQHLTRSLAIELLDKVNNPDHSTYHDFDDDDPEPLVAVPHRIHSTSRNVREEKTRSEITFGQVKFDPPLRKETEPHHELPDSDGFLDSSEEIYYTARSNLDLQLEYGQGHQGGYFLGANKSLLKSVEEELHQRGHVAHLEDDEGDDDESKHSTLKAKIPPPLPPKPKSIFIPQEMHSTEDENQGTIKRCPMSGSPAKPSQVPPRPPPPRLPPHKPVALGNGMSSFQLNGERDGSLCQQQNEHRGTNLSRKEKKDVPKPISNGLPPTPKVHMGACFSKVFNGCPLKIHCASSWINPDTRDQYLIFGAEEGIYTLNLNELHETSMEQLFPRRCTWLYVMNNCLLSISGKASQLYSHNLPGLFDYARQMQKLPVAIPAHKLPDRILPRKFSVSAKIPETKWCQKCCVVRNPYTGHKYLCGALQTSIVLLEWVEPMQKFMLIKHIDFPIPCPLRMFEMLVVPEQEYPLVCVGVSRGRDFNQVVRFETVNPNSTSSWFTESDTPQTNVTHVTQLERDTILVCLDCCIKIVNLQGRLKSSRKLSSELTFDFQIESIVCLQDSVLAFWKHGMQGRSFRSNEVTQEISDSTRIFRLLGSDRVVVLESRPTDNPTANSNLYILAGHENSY
Particulars: MAP4K3(h), read-out: Inhibition rate. The gist of the method: as §1

T2 sequence (P42336 whole entry E545K): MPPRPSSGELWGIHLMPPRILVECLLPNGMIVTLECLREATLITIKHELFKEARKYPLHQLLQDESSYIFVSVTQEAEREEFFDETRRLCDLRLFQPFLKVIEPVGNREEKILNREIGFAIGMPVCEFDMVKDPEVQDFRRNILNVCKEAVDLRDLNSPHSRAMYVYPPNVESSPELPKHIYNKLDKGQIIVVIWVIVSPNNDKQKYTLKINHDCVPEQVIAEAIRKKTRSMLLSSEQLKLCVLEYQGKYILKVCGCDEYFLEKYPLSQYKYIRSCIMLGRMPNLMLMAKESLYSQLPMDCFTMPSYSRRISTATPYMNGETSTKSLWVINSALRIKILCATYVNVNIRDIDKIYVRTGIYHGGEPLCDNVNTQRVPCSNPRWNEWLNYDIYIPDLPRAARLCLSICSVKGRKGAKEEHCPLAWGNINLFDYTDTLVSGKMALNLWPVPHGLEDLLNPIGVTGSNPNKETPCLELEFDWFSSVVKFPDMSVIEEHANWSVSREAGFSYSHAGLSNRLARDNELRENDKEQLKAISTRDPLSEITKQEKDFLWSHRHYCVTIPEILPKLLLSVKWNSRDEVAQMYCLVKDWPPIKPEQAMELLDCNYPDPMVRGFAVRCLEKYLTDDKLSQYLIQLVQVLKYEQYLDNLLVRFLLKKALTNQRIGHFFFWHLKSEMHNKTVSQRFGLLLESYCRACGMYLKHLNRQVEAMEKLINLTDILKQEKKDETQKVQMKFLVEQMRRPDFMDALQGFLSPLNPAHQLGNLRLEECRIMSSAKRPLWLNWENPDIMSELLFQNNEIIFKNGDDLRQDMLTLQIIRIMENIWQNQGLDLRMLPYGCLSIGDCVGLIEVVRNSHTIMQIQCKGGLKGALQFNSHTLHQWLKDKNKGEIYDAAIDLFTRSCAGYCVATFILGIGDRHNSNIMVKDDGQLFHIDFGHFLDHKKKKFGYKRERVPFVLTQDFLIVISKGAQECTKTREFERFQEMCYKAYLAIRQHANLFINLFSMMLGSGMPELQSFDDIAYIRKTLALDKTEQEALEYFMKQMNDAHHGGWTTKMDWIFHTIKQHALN

As to `C=CC(=O)Nc1cc(-c2cc(-c3cc4c([nH]3)CCNC4=O)ccn2)ccc1OC(F)(F)F` [compound 11], the inhibition (usually the change of the read-out against control, counted positive when it falls) at 0.01 µM was 1% in test [1] (10 nM), 2% in test [2] (10 nM) and -8% in test [3] (10 nM). Besides, the inhibition at 0.1 µM in test [1] (100 nM) was 2%; in test [2] (100 nM) it was 2%; in test [3] (100 nM), -4%. The values for the inhibition at 1 µM in test [1] (1000 nM), in test [2] (1000 nM) and in test [3] (1000 nM) were 1%, 4% and 3%, respectively.

The record behind these values is publication PMC11233931, “Remodeling tumor‐associated macrophage for anti‐cancer effects by rational design of irreversible inhibition of mitogen‐activated protein kinase‐activated protein kinase 2” (MedComm, 2024).
